{
  "source": "paper PMC7456637",
  "about": "“Pharmacokinetic characterization of fluorocoxib D, a cyclooxygenase-2-targeted optical imaging agent for detection of cancer” (Journal of Biomedical Optics, 2020)",
  "key": {"[1]": {"assay": "Pilot safety study: complete urinalysis", "assay_type": "in vivo, dog", "description": "(§1) The animal studies were performed in the accordance with the University of Tennessee Institutional Animal Care and Use Committee (UT IACUC)-approved protocols and in an accordance with NIH guidelines. Individually housed research healthy female beagle dogs (Covance Research Product) with weights of 6.7 to 10.3 kg were used to assess the safety and pharmacokinetic parameters of fluorocoxib D administrated a dose of 1 mg/kg over 20 min intravenously (i.v.).\n(§2) For single dose safety evaluation studies, we administrated fluorocoxib D at 1 mg/kg , i.v. using a preplaced cephalic or saphenous vein catheter over 20 min to six healthy research dogs following protocol as described previously.[38] Briefly, physical examinations for signs of potential drug toxicity were performed before, during, and daily for 3 days after fluorocoxib D administration. Physical assessment included auscultation of heart and lungs, abdominal palpation, body temperature, appetite, attitude, activity levels monitoring, and other health-related events. Hypersensitivity was evaluated by direct observation of each dog during treatment for clinical signs of an allergic reaction (facial swelling, flushing, urticaria, dyspnea, scratching, and changes of heart rates). […] Laboratory evaluations of blood and urine were carried out before and 3 days after fluorocoxib D administration to monitor signs of toxicity. Blood (up to 3 ml) was collected into ethylenediaminetetraacetic acid (EDTA) and heparin-treated tubes, and urine (up to 5 ml) was collected by cystocentesis or from the floor of the runs. The laboratory evaluation consisted of a complete blood count (CBC), serum chemistry profile, and complete urinalysis. The CBC evaluated total white blood cells (WBC) and hematocrit (HCT), in addition to absolute numbers of neutrophils, lymphocytes, monocytes, eosinophils, and platelets. The plasma chemistry profile evaluated blood urea nitrogen (BUN), creatinine, proteins (albumin, globulins, and total proteins), alanine aminotransferase (ALT), total bilirubin, glucose, and electrolytes. The complete urinalysis evaluated urine proteins, glucose, and ketones; a sediment examination and urine-specific gravity were validated as well for any possible signs of renal toxicity of fluorocoxib D. All laboratory tests were carried out at the Veterinary Medical Center of the University of Tennessee in Knoxville."}, "[2]": {"assay": "Pilot safety study: physical examination and adverse events", "assay_type": "in vivo, dog", "description": "as §1\nas §2, with “Blood (up to 3 ml) was collected into ethylenediaminetetraacetic acid (EDTA) and heparin-treated tubes, and urine (up to 5 ml) was collected by cystocentesis or from the floor of the runs. The laboratory evaluation consisted of a complete blood count (CBC), serum chemistry profile, and complete urinalysis.” left out"}, "[3]": {"test_system": "COX-2-expressing head and neck cancer (HNC)", "assay": "Fluorocoxib D uptake in HNC mass during rhinoscopy in a client-owned dog", "assay_type": "in vivo", "conditions": "for Uptake of fluorocoxib D in HNC during rhinoscopy: 1 mg/kg i.v. over 20 min, half hour uptake, client-owned dog, chondrosarcoma", "description": "The owners signed a consent form for enrolling their dog for our proof-of principal study. A nine-year old female-spayed Golden Retriever dog weighing 35 kg was presented for an acute onset of unilateral right-sided epistaxis of 5-day duration. Previous medical history included a grade 2 soft tissue sarcoma with a high mitotic index that was completely excised from her ventral neck ∼2 years prior with no signs of regrowth. Rhinoscopy and biopsy procedure in the dog was performed by board-certified veterinary internal specialists (SO and JS) in an accordance with a standard veterinary care and the UT IACUC-approved protocol. Fluorocoxib D was administrated i.v. 1 mg/kg over 20 min using a catheter, followed by a half hour uptake before initiation of rhinoscopy procedure. Rhinoscopy was used to obtain biopsy samples guided by uptaken fluorocoxib D in the computed tomography (CT)-identified head and neck cancer (HNC) mass. Rhinoscopy and biopsy procedures in dog were performed under general anesthesia using a 2.7-mm, 30-deg, 18-cm rigid scope (Karl Storz Veterinary Endoscopy) attached to a TRICAM PDD as described previously[38] using a custom-designed filter system for detection of fluorocoxib D ( λem 645±50 nm ). After complete recovery from the rhinoscopic examination and anesthesia in a quiet room, the client-owned dog was returned to its owners. The heat map images with adjusted hue saturation of fluorocoxib D signal (pink color) from normal tissue (upper three images) and HNC tumor (lower three images) obtained during rhinoscopy were generated using Adobe Photoshop CC2019 software ([…]) in order to better visualize the tumor and its margins. […]\nThe biopsy samples obtained during rhinoscopy procedures in dogs were formalin-fixed and paraffin-embedded and sectioned at 7-μm thin sections for histology and immunohistochemistry analysis for detection of COX-2 and Ki67 expression as described previously.[38] […] The tissue specimens were evaluated using a Leitz DMRB microscope. […]"}, "COX1": {"test_system": "COX1", "conditions": "cited from earlier work"}, "[4]": {"conditions": "3 days after single dose 1 mg/kg i.v., individual dogs, reference NEG, 1 mg/kg"}},
  "note": "“And” between values parts separate entries of the source, which are not always exact repeats. Equal values may be shown once. “Also recorded” adds a separate entry of the source.",
  "data": [
    {"smiles": "COc1ccc2c(c1)c(CC(=O)NCCCCNC(=O)c1ccc(C3=c4cc5c6c(c4Oc4c3cc3c7c4CCCN7CCC3)CCC[N+]=6CCC5)cc1)c(C)n2C(=O)c1ccc(Cl)cc1", "note": "[Fluorocoxib D, N -[(rhodamin-X-yl)but-4-yl]-2-[1-(4-chlorobenzoyl)-5-methoxy-2-methyl-1H-indol-3-yl]acetamide]", "values": [
      {"measurement": "SP. GRAV (urine-specific gravity), After", "setting": "[1]; 3 days after single dose 1 mg/kg i.v., individual dogs, 1 mg/kg", "value": "1.03 and 1.039 (2×) and 1.032 and 1.044"},
      {"measurement": "GLU-COSE (urine), After", "setting": "[1]; 3 days after single dose 1 mg/kg i.v., individual dogs, reference NEG", "value": "NEG"},
      {"measurement": "PRO-TEIN (urine), After", "setting": "[1]; 3 days after single dose 1 mg/kg i.v., individual dogs, reference NEG-1+, 1 mg/kg", "value": "NEG (3×) and TRACE"},
      {"measurement": "BLD/Hb (urine blood/hemoglobin), After", "setting": "[1]; [4]", "value": "NEG (2×) and TRACE (2×)"},
      {"measurement": "KETO-NES (urine), After", "setting": "[1]; [4]", "value": "NEG (3×) and TRACE (2×)"},
      {"measurement": "PH (urine pH), After", "setting": "[1]; 3 days after single dose 1 mg/kg i.v., individual dogs, reference range 5 to 9, 1 mg/kg", "value": ">9 H and 6 (3×) and 5.5"},
      {"measurement": "Urine bacteria finding 3 days after administration", "setting": "[1]; two dogs (#4 and #6), no pyuria, not thought relevant to toxicity", "value": "bacteriuria"},
      {"measurement": "Adverse events including diarrhea, vomiting, nausea, and loss of appetite", "setting": "[2]; 1 mg/kg i.v. over 20 min, six research dogs", "value": "not observed"},
      {"measurement": "Overall safety / toxicity of single dose", "setting": "[2]; 1 mg/kg i.v. over 20 min, six research dogs, 3 days observation", "value": "No evidence of toxicity; also recorded: safe dose; also recorded: no clinically relevant adverse events"},
      {"measurement": "Salivation during administration", "setting": "[2]; one dog of six, during 20 min i.v. administration, attributed to DMSO solvent", "value": "increased salivation"},
      {"measurement": "Uptake of fluorocoxib D in HNC during rhinoscopy", "setting": "[3]", "value": "uptake was detected"},
      {"measurement": "Uptake of fluorocoxib D in HNC during rhinoscopy", "setting": "[3]; listed as fluorocoxib D", "value": "Specific uptake of fluorocoxib D was detected"},
      {"measurement": "Tumor-to-normal tissue ratio (T/N ratio) of fluorocoxib D signal", "setting": "[3]; 1 mg/kg i.v., canine HNC, ImageJ, normal n=804 and tumor ROI n=866", "value": "3.7±0.9"},
      {"measurement": "IC50", "setting": "COX1", "value": 4, "unit": "µM"}
    ]}
  ]
}
